In paper PMC10484922, “Discovery of a selective and biologically active low-molecular weight antagonist of human interleukin-1β” (Nature Communications, 2023):
Entries after “also recorded” stand apart in the source; their conditions may differ.

System: CHO IL-36R reporter cell line stimulated with IL-36γ
Experiment: NanoBiT reporter assay, CHO IL-36R cells, IL-36γ driven
Type: cell-based
Set-up: average: scale not given here
Experimental: Reporter cell system for NanoBiT assay
CHO IL-36R or CHO IL-1R1 reporter cell lines, prepared internally (Klemens Ka u p ma n n ), based on tagged IL-1RAcP and Myd88 proteins using the NanoBiT complementation system, were seeded at a densi ty of 10’000 cells/well in 30 µL of OptiMEM + 0.1 % FCS medium using 384-well plates (white, TCT), for 24 hours.
Before the treatment, the medium was removed, 20 µL of NanoGlo substrate, (#N2012, Pr o me g a ) were added to the wells. Following substrate addi ti on, 240 nL of compound were added to the wells using an ECH O dispenser device. Then, 3.76 µL of the ligand IL-36g (Novartis) at 200 ng/mL end concentration or recombinant IL-1b (Novartis) at 500 pg/mL end concentration were added to the mix. Luminescence was measured at 405 nm after 30 min incubation (Pherastar reader). […]

Cc1ccc2c(c1)NC(=O)[C@@]2(c1cn[nH]c1)c1cc(-c2ccc(C(=O)O)cc2C(=O)O)ccc1O [Compound (S)-2]
IL-36γ-driven NanoBiT reporter activity: without effect on IL-36g-driven activity; also recorded: no inhibitory activity
average (IL-36, EXP1, conc 0.00610352 uM): -8.032
average (IL-36, EXP1, conc 0.012207 uM): -2.7959
average (IL-36, EXP1, conc 0.0244141 uM): -4.066
average (IL-36, EXP1, conc 0.0488281 uM): -1.337
average (IL-36, EXP1, conc 0.0976562 uM): -10.0933
average (IL-36, EXP1, conc 0.195312 uM): -6.363
average (IL-36, EXP1, conc 0.390625 uM): -11.0347
average (IL-36, EXP1, conc 0.78125 uM): -4.52
average (IL-36, EXP1, conc 1.5625 uM): -4.793
average (IL-36, EXP1, conc 3.125 uM): -8.376
average (IL-36, EXP1, conc 6.25 uM): -1.775
average (IL-36, EXP1, conc 12.5 uM): -2.393
average (IL-36, EXP1, conc 25 uM): -11.2956
average (IL-36, EXP1, conc 50 uM): -8.608
average (IL-36, EXP1, conc 100 uM): 2.894
average (IL-36, EXP2, conc 0.00610352 uM): -0.8565
average (IL-36, EXP2, conc 0.012207 uM): -0.8771
average (IL-36, EXP2, conc 0.0244141 uM): 16.4182
average (IL-36, EXP2, conc 0.0488281 uM): -7.751
average (IL-36, EXP2, conc 0.0976562 uM): 10.3597
average (IL-36, EXP2, conc 0.195312 uM): 5.839
average (IL-36, EXP2, conc 0.390625 uM): 4.392
average (IL-36, EXP2, conc 0.78125 uM): 8.396
average (IL-36, EXP2, conc 1.5625 uM): 12.4114
average (IL-36, EXP2, conc 3.125 uM): 6.063
average (IL-36, EXP2, conc 6.25 uM): 0.8781
average (IL-36, EXP2, conc 12.5 uM): 10.8339
average (IL-36, EXP2, conc 25 uM): 7.445
average (IL-36, EXP2, conc 50 uM): 10.4408
average (IL-36, EXP2, conc 100 uM): 12.6091
average (IL-36, EXP3, conc 0.00610352 uM): 2.096
average (IL-36, EXP3, conc 0.012207 uM): -6.441
average (IL-36, EXP3, conc 0.0244141 uM): 4.8088
average (IL-36, EXP3, conc 0.0488281 uM): -5.951
average (IL-36, EXP3, conc 0.0976562 uM): -4.784
average (IL-36, EXP3, conc 0.195312 uM): -4.89
average (IL-36, EXP3, conc 0.390625 uM): -47.4888
average (IL-36, EXP3, conc 0.78125 uM): -7.151
average (IL-36, EXP3, conc 1.5625 uM): -6.215
average (IL-36, EXP3, conc 3.125 uM): -8.634
average (IL-36, EXP3, conc 6.25 uM): -10.5486
average (IL-36, EXP3, conc 12.5 uM): -5.26
average (IL-36, EXP3, conc 25 uM): -17.1151
average (IL-36, EXP3, conc 50 uM): -4.192
average (IL-36, EXP3, conc 100 uM): -4.987
